Source: article PMC4534092, “Novel Penicillin Analogues as Potential Antimicrobial Agents; Design, Synthesis and Docking Studies” (PLoS ONE, 2015)

Biological target: MurC (UDP-N-acetylmuramic acid:L-alanine ligase) (Escherichia coli, UniProt P17952)
Test: Malachite green phosphate detection enzyme assay with […] MurC
Assay type: biochemical

Chain of MurC (UDP-N-acetylmuramic acid:L-alanine ligase) (P17952 whole entry): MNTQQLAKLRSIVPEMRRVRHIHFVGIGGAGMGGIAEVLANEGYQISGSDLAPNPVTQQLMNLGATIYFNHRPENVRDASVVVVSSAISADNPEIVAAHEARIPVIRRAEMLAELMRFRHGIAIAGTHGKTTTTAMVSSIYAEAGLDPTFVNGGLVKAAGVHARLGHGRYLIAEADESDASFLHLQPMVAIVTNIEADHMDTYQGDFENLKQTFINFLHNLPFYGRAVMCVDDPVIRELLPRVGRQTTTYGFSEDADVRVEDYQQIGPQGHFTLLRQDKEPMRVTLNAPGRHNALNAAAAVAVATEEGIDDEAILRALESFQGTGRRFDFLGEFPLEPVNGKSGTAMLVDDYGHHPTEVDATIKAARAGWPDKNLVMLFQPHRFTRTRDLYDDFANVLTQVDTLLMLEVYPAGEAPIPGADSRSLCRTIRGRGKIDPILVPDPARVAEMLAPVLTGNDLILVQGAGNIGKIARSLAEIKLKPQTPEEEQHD

Row | Structure (SMILES) | IC50 [µM]
1 | COc1ccc2cc(C(C)C(=O)NC3C(=O)N4C3SC(C)(C)C4C(=O)O)ccc2c1 [4e, (2S,5R,6S)-6-(3'-(11'-methoxynaphthalen-5'-yl)propanamido)-3,3-dimethyl-7-oxo-4-thia-1-azabicyclo[3.2.0]heptane-2-carboxylic acid] | 12.5
2 | Nc1ncnc2c1ncn2[C@@H]1O[C@H](COP(=O)(O)OP(=O)(O)CP(=O)(O)O)[C@@H](O)[C@H]1O [AMP-PCP] | 17
